Test results published in patent US7342122B2, “Bisphosphonate complexes” (priority 2003, dated 2008).

Key:
MKN1 = test: Cell growth inhibition, human stomach cancer MKN1; format: cell-based
Protocol: (§1) KB cells were purchased from Human Science Research Resource Bank (Osaka, Japan). The cells were cultured in Earle's MEM (GIBCO BRL) containing 10% FBS (Bio Whittaker) at 37° C. under 5% CO2. After 24 hours the test compounds were added to the cells at the indicated concentrations. 72 hours later the cells were stained with tripan blue and counted manually. IC50 is calculated as the concentration (aqueous solution) of complex required to inhibit growth of cells by 50%.
(§2) In a similar fashion a representative number of examples of compounds of the invention were tested for their ability to inhibit the growth/proliferation of cell types representing a number of different cancers. The results are provided in Tables 4-13, below, which provide the Inhibition Constants (IC50, μM) for each compound across various cell lines.

NCI-H23 = test: Cell growth inhibition, lung cancer cell line NCI-H23; format: cell-based
Protocol: as §1, §2

U251 = test: Cell growth inhibition, brain cancer cell line U251; format: cell-based
Protocol: as §1, §2

HCT-15 = test: Cell growth inhibition, colon cancer cell line HCT-15; format: cell-based; settings: HCT-15, colon cancer cell line
Protocol: as §1, §2

BSY-1 = test: Cell growth inhibition, breast cancer cell line BSY-1; format: cell-based; settings: BSY-1, breast cancer cell line
Protocol: as §1, §2

OVCAR-4 = test: Cell growth inhibition, ovarian cancer cell line OVCAR-4; format: cell-based; settings: OVCAR-4, ovarian cancer cell line
Protocol: as §1, §2

NCI-H460 = test: Cell growth inhibition, lung cancer cell line NCI-H460; format: cell-based
Protocol: as §1, §2

NCI-H522 = test: Cell growth inhibition, lung cancer cell line NCI-H522; format: cell-based
Protocol: as §1, §2

HCC2998 = test: Cell growth inhibition, colon cancer cell line HCC2998; format: cell-based
Protocol: as §1, §2

St-4 = test: Cell growth inhibition, human stomach cancer St-4; format: cell-based; settings: St-4, human stomach cancer
Protocol: as §1, §2

SF-295 = test: Cell growth inhibition, brain cancer cell line SF-295; format: cell-based; settings: SF-295, brain cancer cell line
Protocol: as §1, §2

NCI-H226 = test: Cell growth inhibition, lung cancer cell line NCI-H226; format: cell-based
Protocol: as §1, §2

HT-29 = test: Cell growth inhibition, colon cancer cell line HT-29; format: cell-based; settings: HT-29, colon cancer cell line
Protocol: as §1, §2

SF-268 = test: Cell growth inhibition, brain cancer cell line SF-268; format: cell-based; settings: SF-268, brain cancer cell line
Protocol: as §1, §2

KM-12 = test: Cell growth inhibition, colon cancer cell line KM-12; format: cell-based; settings: KM-12, colon cancer cell line
Protocol: as §1, §2

SNB-75 = test: Cell growth inhibition, brain cancer cell line SNB-75; format: cell-based; settings: SNB-75, brain cancer cell line
Protocol: as §1, §2

HBC-4 = test: Cell growth inhibition, breast cancer cell line HBC-4; format: cell-based; settings: HBC-4, breast cancer cell line
Protocol: as §1, §2

MKN28 = test: Cell growth inhibition, human stomach cancer MKN28; format: cell-based
Protocol: as §1, §2

DMS273 = test: Cell growth inhibition, lung cancer cell line DMS273; format: cell-based
Protocol: as §1, §2

PC-3 = test: Cell growth inhibition, prostatic cancer PC-3; format: cell-based; settings: PC-3, prostatic cancer
Protocol: as §1, §2

MCF-7 = test: Cell growth inhibition, breast cancer cell line MCF-7; format: cell-based; settings: MCF-7, breast cancer cell line
Protocol: as §1, §2

DMS114 = test: Cell growth inhibition, lung cancer cell line DMS114; format: cell-based
Protocol: as §1, §2

MDA-MB-231 = test: Cell growth inhibition, breast cancer cell line MDA-MB-231; format: cell-based; settings: MDA-MB-231, breast cancer cell line
Protocol: as §1, §2

SNB-78 = test: Cell growth inhibition, brain cancer cell line SNB-78; format: cell-based; settings: SNB-78, brain cancer cell line
Protocol: as §1, §2

A549 = test: Cell growth inhibition, lung cancer cell line A549; format: cell-based
Protocol: as §1, §2

MKN7 = test: Cell growth inhibition, human stomach cancer MKN7; format: cell-based
Protocol: as §1, §2

DU-145 = test: Cell growth inhibition, prostatic cancer DU-145; format: cell-based, human; settings: DU-145, prostatic cancer
Protocol: as §1, §2

RXF-631L = test: Cell growth inhibition, renal cancer RXF-631L; format: cell-based
Protocol: as §1, §2

LOX-IMVI = test: Cell growth inhibition, melanoma cell line LOX-IMVI; format: cell-based
Protocol: as §1, §2

SF-539 = test: Cell growth inhibition, brain cancer cell line SF-539; format: cell-based; settings: SF-539, brain cancer cell line
Protocol: as §1, §2

OVCAR-5 = test: Cell growth inhibition, ovarian cancer cell line OVCAR-5; format: cell-based; settings: OVCAR-5, ovarian cancer cell line
Protocol: as §1, §2

SK-OV-3 = test: Cell growth inhibition, ovarian cancer cell line SK-OV-3; format: cell-based; settings: SK-OV-3, ovarian cancer cell line
Protocol: as §1, §2

ACHN = test: Cell growth inhibition, renal cancer ACHN; format: cell-based
Protocol: as §1, §2

HBC-5 = test: Cell growth inhibition, breast cancer cell line HBC-5; format: cell-based; settings: HBC-5, breast cancer cell line
Protocol: as §1, §2

MKN74 = test: Cell growth inhibition, human stomach cancer MKN74; format: cell-based
Protocol: as §1, §2

[1] = tested on: all cell types (cancer cell lines of Tables 4-12); test: Cell growth inhibition, mean over all cell types of the panel; format: cell-based; settings: mean over all cell lines of Tables 4-12
Protocol: as §1, §2

OVCAR-8 = test: Cell growth inhibition, ovarian cancer cell line OVCAR-8; format: cell-based; settings: OVCAR-8, ovarian cancer cell line
Protocol: as §1, §2

HCT-116 = test: Cell growth inhibition, colon cancer cell line HCT-116; format: cell-based; settings: HCT-116, colon cancer cell line
Protocol: as §1, §2

OVCAR-3 = test: Cell growth inhibition, ovarian cancer cell line OVCAR-3; format: cell-based; settings: OVCAR-3, ovarian cancer cell line
Protocol: as §1, §2

MKN45 = test: Cell growth inhibition, human stomach cancer MKN45; format: cell-based
Protocol: as §1, §2

| Molecule | log10 IC50 (M) (MKN1) | log10 IC50 (M) (NCI-H23) | log10 IC50 (M) (U251) | log10 IC50 (M) (HCT-15) | log10 IC50 (M) (BSY-1) | log10 IC50 (M) (OVCAR-4) | log10 IC50 (M) (NCI-H460) | log10 IC50 (M) (NCI-H522) | log10 IC50 (M) (HCC2998) | log10 IC50 (M) (St-4) | log10 IC50 (M) (SF-295) | log10 IC50 (M) (NCI-H226) | log10 IC50 (M) (HT-29) | log10 IC50 (M) (SF-268) | log10 IC50 (M) (KM-12) | log10 IC50 (M) (SNB-75) | log10 IC50 (M) (HBC-4) | log10 IC50 (M) (MKN28) | log10 IC50 (M) (DMS273) | log10 IC50 (M) (PC-3) | other results |
| --- | --- | --- | --- | --- | --- | --- | --- | --- | --- | --- | --- | --- | --- | --- | --- | --- | --- | --- | --- | --- | --- |
| Pt(dach)-IP6 [Example 10] | -4.89 | -4.95 | -4.69 | -5.14 | -4.56 | -5.01 | -5.19 | -5.17 | -4.7 | -4.3 | -4.67 | -5.08 | -4.65 | -4.52 | -4.23 | -4.86 | -5.07 | -4.19 | -6.27 | -4.46 | log10 IC50 (M) (MCF-7): -5.32; log10 IC50 (M) (DMS114): -4.26; log10 IC50 (M) (MDA-MB-231): -4.67; log10 IC50 (M) (SNB-78): -4.48; log10 IC50 (M) (A549): -5.21; log10 IC50 (M) (MKN7): -4.17; log10 IC50 (M) (DU-145): -5.03; log10 IC50 (M) (RXF-631L): -4.39; log10 IC50 (M) (LOX-IMVI): -5.31; log10 IC50 (M) (SF-539): -5.14; log10 IC50 (M) (OVCAR-5): -4.78; log10 IC50 (M) (SK-OV-3): -4.28; log10 IC50 (M) (ACHN): -5.21; log10 IC50 (M) (HBC-5): -5.4; log10 IC50 (M) (MKN74): -4.15; log10 IC50 (M) [1]: -4.86; log10 IC50 (M) (OVCAR-8): -4.57; log10 IC50 (M) (HCT-116): -5.33; log10 IC50 (M) (OVCAR-3): -4.9; log10 IC50 (M) (MKN45): -6.21 |
| [Cl-].[Cl-].c1cc[n+]2c(c1)-c1cccc[n+]1[Pt-2]21[NH2+]CCC[NH+]1Cc1c2ccccc2cc2ccccc12 [Example 7, Pt(bpy)(AtC3)] | -5.6 | -5.53 | -5.66 | -5.56 | -5.89 | -5.7 | -5.71 | -5.77 | -5.7 | -5.61 | -5.62 | -5.64 | -5.69 | -5.62 | -5.69 | -5.59 | -5.76 | -5.64 | -5.68 | -5.59 | log10 IC50 (M) (MCF-7): -5.69; log10 IC50 (M) (DMS114): -5.76; log10 IC50 (M) (MDA-MB-231): -5.78; log10 IC50 (M) (SNB-78): -5.54; log10 IC50 (M) (A549): -5.68; log10 IC50 (M) (MKN7): -5.62; log10 IC50 (M) (DU-145): -5.73; log10 IC50 (M) (RXF-631L): -5.67; log10 IC50 (M) (LOX-IMVI): -5.76; log10 IC50 (M) (SF-539): -5.75; log10 IC50 (M) (OVCAR-5): -5.8; log10 IC50 (M) (SK-OV-3): -5.61; log10 IC50 (M) (ACHN): -5.67; log10 IC50 (M) (HBC-5): -5.89; log10 IC50 (M) (MKN74): -5.63; log10 IC50 (M) [1]: -5.68; log10 IC50 (M) (OVCAR-8): -5.52; log10 IC50 (M) (HCT-116): -5.72; log10 IC50 (M) (OVCAR-3): -5.68; log10 IC50 (M) (MKN45): -5.63 |
| cis-Pt (NH3)2(Pyrophosphate) [Example 8] | -5.18 | -5.2 | -4.64 | -4.51 | -5.2 | -4.83 | -5.22 | -5.16 | -4.57 | -4.61 | -5.22 | -4.64 | -4.44 | -5.11 | -4.43 | -4.93 | -4.83 | -4.52 | -4.97 | -4.45 | log10 IC50 (M) (MCF-7): -4.77; log10 IC50 (M) (DMS114): -4.85; log10 IC50 (M) (MDA-MB-231): -4.35; log10 IC50 (M) (SNB-78): -4.61; log10 IC50 (M) (A549): -4.79; log10 IC50 (M) (MKN7): -4.76; log10 IC50 (M) (DU-145): -5.29; log10 IC50 (M) (RXF-631L): -4.74; log10 IC50 (M) (LOX-IMVI): -4.85; log10 IC50 (M) (SF-539): -5.17; log10 IC50 (M) (OVCAR-5): -4.52; log10 IC50 (M) (SK-OV-3): -4.65; log10 IC50 (M) (ACHN): -5.37; log10 IC50 (M) (HBC-5): -5.57; log10 IC50 (M) (MKN74): -4.5; log10 IC50 (M) [1]: -4.83; log10 IC50 (M) (OVCAR-8): -4.72; log10 IC50 (M) (HCT-116): -4.58; log10 IC50 (M) (OVCAR-3): -4.69; log10 IC50 (M) (MKN45): -4.91 |
